Data published in US20160061843A1, “BIOMARKER ASSAY” (Respiratory Clinical Trials Ltd, priority 2014, published 2016).

Legend:
Assay type in all cases: cell-based, human
[1] = test system: intracellular pSTAT1 in macrophages; test: Flow cytometry of IFNγ-induced STAT1 phosphorylation in induced sputum macrophages from COPD subjects; conditions: IFNγ 10 ng/ml
From the text: Sputum samples were collected from 15 COPD subjects on three or four repeat visits (i.e., three to four samples per subject). In each case, the subject inhaled 3% (w/v) saline solution mist through the mouthpiece of an ultrasonic nebulizer for five minutes. Sputum mobilization techniques were utilized to assist with the production of a sputum sample, such as diaphragmatic breathing, huffs, percussion, vibrations and positive expiratory pressure techniques. The subject was asked to attempt to cough sputum into a sputum collection pot. If the FEV1 fell by <10% after inhalation of 3% (w/v) saline, the participant was asked to inhale the next saline concentration (4% w/v) and repeat the procedure detailed above. Again if the FEV1 fell by <10% after inhalation of 4% (w/v) saline, the participant was asked to inhale the next saline concentration (5% w/v) and repeat the procedure detailed above. The sputum collected after 15 minutes of nebulization (i.e., 3×5 minutes) was processed in the laboratory for flow cytometric analysis. Induced sputum was kept on ice and processed as soon as possible but no more than two hours from collection. Sputum plugs were selected for processing and suitably transferred into a centrifuge tube. The volume of the selected sputum sample was noted and an equal volume of DPBS added. To liquefy the sample Sputolysin® was added to a final concentration of 0.05% (w/v). The tube was placed on a plate shaker (300 rpm) for 30 minutes at room temperature to disperse the cells. After 30 minutes the sample was mixed gently with a Pasteur pipette and left to shake for a further 15 minutes. The sample was centrifuged at 1200 rpm for 10 minutes at room temperature. Sputum supernatant was collected and used to measure cytokines/chemokines of interest. […] The supernatant was removed and the cell pellet resuspended in 500 μl staining buffer ready for flow cytometric analysis. […] Levels of STAT phosphorylation in the macrophage population were determined by taking the MFI of the stimulated sample and dividing by the MFI for the non-stimulated sample.

[2] = test system: intracellular pSTAT1(Y701) in macrophages; test: Flow cytometry of IFNγ-induced STAT1(Y701) phosphorylation in induced sputum macrophages from smokers; conditions: unstimulated MFI 345.5; sputum from two smokers
Experimental: FIG. 11A is a line graph showing the stimulation of STAT1(Y701) phosphorylation in macrophages and neutrophils from induced sputum by IFNγ, and inhibition of such phosphorylation after pre-incubation with increasing concentrations of a MK2 inhibitor followed by IFNγ stimulation. FIG. 11B is a bar graph showing phosphorylation of STAT1 (Y701) in macrophages in the presence and absence of the MK2 inhibitor expressed as % stimulation. % stimulation was calculated as stimulated MFI/non-stimulated MFI×100.
Induced sputum samples were obtained as described in Example 1. In this study, however, the subjects were smokers. Sputum was collected from two subjects.
Sputum samples were processed as described in Example 1.
Inducing STAT1(Y701) Phosphorylation STAT phosphorylation was induced as described in Example 1. In this study, however, the inhibitor compound was a MK2 inhibitor […].
Samples were stained as described in Example 1. However, in this study, and in order to specifically detect STAT1(Y701) phosphorylation, an Alexa Fluor® 647 conjugated anti-pSTAT1(Y701) antibody was used.
Levels of STAT1(Y701) phosphorylation in the macrophage population were determined by taking the MFI of the stimulated sample and dividing by the MFI for the non-stimulated sample. A value of greater than one (>1) indicated positive staining.

[3] = test system: intracellular pSTAT3 in sputum macrophages; test: Flow cytometry of IFNγ-induced STAT3 phosphorylation in induced sputum macrophages from COPD subjects; conditions: % stimulation = stimulated MFI/non-stimulated MFI×100; IFNγ 10 ng/ml
Experimental: FIG. 10 is a bar graph showing STAT3 phosphorylation in sputum macrophages following stimulation with IFNγ in the absence or presence of increasing concentrations of a MK2 inhibitor. % stimulation was calculated as stimulated MFI/non-stimulated MFI×100.
The methods of Example 1 were repeated exactly, but this time measuring intracellular STAT3 phosphorylation using an Alexa Fluor® 647 conjugated anti-pSTAT3 antibody. In addition, a MK2 inhibitor was tested instead of a JAK inhibitor compound. Increasing concentrations of inhibitor were tested (1 μM, 10 μM and 100 μM); the same conditions otherwise applied.

IFNγ: cytokine used as stimulator of STAT phosphorylation
MFI of intracellular pSTAT1 in macrophages after incubation with IFNγ ([1]; 20 min, 37° C., unstimulated MFI 120.7±23.92, 15 COPD subjects): 196.7±33.97
MFI of intracellular pSTAT1(Y701) in macrophages stimulated with IFNγ [2]: 511
increase of intracellular pSTAT3 in sputum macrophages following incubation with IFNγ [3]: 100%

C[C@@H]1CCN(C(=O)N2CCCC2)C[C@@H]1N(C)c1ncnc2[nH]ccc12 [JAK inhibitor, PF 956980]
inhibition of STAT1 phosphorylation (in words) ([1]; inhibitor final concentration 10^−5 M): complete inhibition
MFI of intracellular pSTAT1 in macrophages after incubation with IFNγ+JAK inhibitor ([1]; inhibitor final concentration 10^−5 M, unstimulated MFI 120.7±23.92, stimulated MFI 196.7±33.97): 118.3±24.44
